Data reported in US11702429B2, “mTORC modulators and uses thereof” (Aeovian Pharmaceuticals, Inc., priority 2019, dated 2023).
Like-named read-outs stand apart in the source and are kept apart here.

Key:
[1] = molecular target: T1, mTORC2 (Homo sapiens, UniProt P42345+P62942); experiment: Inhibition assay for mTORC2: phosphorylation of pAkt at Ser473, AlphaLISA in PC3 cells; format: cell-based; conditions: for IC50: read-out: pIC50 mTORC2 (converted)
T1 construct: endogenous in cells; host or cells: PC3 cells (human prostate adenocarcinoma)
T1 sequence (P62942 2-108 limits assumed, other chains not shown): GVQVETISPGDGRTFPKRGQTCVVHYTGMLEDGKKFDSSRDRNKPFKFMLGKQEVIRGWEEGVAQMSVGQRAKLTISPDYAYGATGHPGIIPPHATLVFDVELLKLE

[2] = molecular target: T2, mTORC1 (Homo sapiens, UniProt P42345+P62942); experiment: Inhibition assay for mTORC1: phosphorylation of pS6K at Thr389, AlphaLISA in PC3 cells; format: cell-based; conditions: for IC50: read-out: pIC50 mTORC1 (converted)
T2 construct: endogenous in cells; host or cells: PC3 cells (human prostate adenocarcinoma)

[3] = PC3 cells, treated 24 hours, pAkt Ser473, AlphaLISA, C16 diastereomer mixtures not separated
[4] = PC3 cells, treated 24 hours, pS6K Thr389, AlphaLISA, C16 diastereomer mixtures not separated

IC50 [1] [nM] | IC50 [2] [nM] | SMILES | also measured
 |  | CO[C@@H]1C[C@H](C[C@@H](C)[C@@H]2CC(=O)[C@H](C)/C=C(\C)[C@@H](O)[C@@H](OC)C(=O)[C@H](C)C[C@H](C)/C=C/C=C/C=C(\C)C(OCCO)C[C@@H]3CC[C@@H](C)[C@@](O)(O3)C(=O)C(=O)N3CCCCC3C(=O)O2)CC[C@H]1OCCCN1CCO[C@H](C)C1 (stereo partly shown) [Compound 43] | pIC50 mTORC2 [1, 3]: B (5 to 6 as B); pIC50 mTORC1 [2, 4]: A (pIC50 for mTORC1 of >9.5 as A)
< 1000 | < 0.316 | COC1C[C@@H]2CC[C@@H](C)[C@@](O)(O2)C(=O)C(=O)N2CCCCC2C(=O)O[C@H]([C@H](C)C[C@@H]2CC[C@@H](OCCCN3CCN(C)CC3)[C@H](OC)C2)CC(=O)[C@H](C)/C=C(\C)[C@@H](O)[C@@H](OC)C(=O)[C@H](C)C[C@H](C)/C=C/C=C/C=C/1C (stereo partly shown) [Compound 332] | 
 |  | COCCOC1CC2CCC(C)C(O)(O2)C(=O)C(=O)N2CCCCC2C(=O)OC(C(C)CC2CCC(OCC(O)CO)C(OC)C2)CC(=O)C(C)C=C(C)C(O)C(OC)C(=O)C(C)CC(C)C=CC=CC=C1C (stereo not shown) [Compound 45] | pIC50 mTORC2 [1, 3]: B (5 to 6 as B); pIC50 mTORC1 [2, 4]: A (pIC50 for mTORC1 of >9.5 as A)
< 1000 | < 0.316 | CO[C@@H]1C[C@H](C[C@@H](C)[C@@H]2CC(=O)[C@H](C)/C=C(\C)[C@@H](O)[C@@H](OC)C(=O)[C@H](C)C[C@H](C)/C=C/C=C/C=C(\C)C(O[C@H](CO)c3ccccc3)C[C@@H]3CC[C@@H](C)[C@@](O)(O3)C(=O)C(=O)N3CCCCC3C(=O)O2)CC[C@H]1O (stereo partly shown) [Compound 204] | 
< 1000 | 0.316 to 3.16 | CO[C@@H]1C[C@H](C[C@@H](C)[C@@H]2CC(=O)[C@H](C)/C=C(\C)[C@@H](O)[C@@H](OC)C(=O)[C@H](C)C[C@H](C)/C=C/C=C/C=C(\C)C(OCCCO)C[C@@H]3CC[C@@H](C)[C@@](O)(O3)C(=O)C(=O)N3CCCCC3C(=O)O2)CC[C@H]1O (stereo partly shown) [Compound 210] | 
 |  | COC1C[C@@H]2CC[C@@H](C)[C@@](O)(O2)C(=O)C(=O)N2CCCCC2C(=O)O[C@H]([C@H](C)C[C@@H]2CC[C@@H](OCCCOCCO)[C@H](OC)C2)CC(=O)[C@H](C)/C=C(\C)[C@@H](O)[C@@H](OC)C(=O)[C@H](C)C[C@H](C)/C=C/C=C/C=C/1C (stereo partly shown) [Compound 352] | pIC50 mTORC2 ([1]; Rapamycin analogs substituted at C40, pAkt Ser473, PC3 cells, 24 hours treatment): C (greater than 6 as C); pIC50 mTORC1 ([2]; Rapamycin analogs substituted at C40, pS6K Thr389, PC3 cells, 24 hours treatment): A (pIC50 for mTORC1 of >9.5 as A)
< 1000 | < 0.316 | COC1C[C@@H]2CC[C@@H](C)[C@@](O)(O2)C(=O)C(=O)N2CCCCC2C(=O)O[C@H]([C@H](C)C[C@@H]2CC[C@@H](OCCCOCCO)[C@H](OC)C2)CC(=O)[C@H](C)/C=C(\C)[C@@H](O)[C@@H](OC)C(=O)[C@H](C)C[C@H](C)/C=C/C=C/C=C/1C (stereo partly shown) [Compound 319] | 
 |  | COC1CC(CC(C)C2CC(=O)C(C)C=C(C)C(O)C(OC)C(=O)C(C)CC(C)C=CC=CC=C(C)C(OCCO)CC3CCC(C)C(O)(O3)C(=O)C(=O)N3CCCCC3C(=O)O2)CCC1OCCCN1CCOCC1C (mixture of isomers) [Compound 5] | IC50 [1, 3]: > 10000 nM; IC50 [2, 4]: < 0.316 nM
< 1000 | < 0.316 | COC1C[C@@H]2CC[C@@H](C)[C@@](O)(O2)C(=O)C(=O)N2CCCCC2C(=O)O[C@H]([C@H](C)C[C@@H]2CC[C@@H](OCCN3CCOCC3)[C@H](OC)C2)CC(=O)[C@H](C)/C=C(\C)[C@@H](O)[C@@H](OC)C(=O)[C@H](C)C[C@H](C)/C=C/C=C/C=C/1C (stereo partly shown) [Compound 325] | 
 |  | CO[C@@H]1C[C@H](C[C@@H](C)[C@@H]2CC(=O)[C@H](C)/C=C(\C)[C@@H](O)[C@@H](OC)C(=O)[C@H](C)C[C@H](C)/C=C/C=C/C=C(\C)C(OCCO)C[C@@H]3CC[C@@H](C)[C@@](O)(O3)C(=O)C(=O)N3CCCC[C@H]3C(=O)O2)CC[C@H]1OCCCN1CC2(COC2)C1 (mixture of isomers) [Compound 78] | IC50 [1, 3]: > 10000 nM; IC50 [2, 4]: 0.316 to 3.16 nM
< 1000 | < 0.316 | CO[C@@H]1C[C@H](C[C@@H](C)[C@@H]2CC(=O)[C@H](C)/C=C(\C)[C@@H](O)[C@@H](OC)C(=O)[C@H](C)C[C@H](C)/C=C/C=C/C=C(\C)C(OCCc3ccccc3)C[C@@H]3CC[C@@H](C)[C@@](O)(O3)C(=O)C(=O)N3CCCCC3C(=O)O2)CC[C@H]1O (stereo partly shown) [Compound 211] | 
